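Compound exposure: 48 hours, 5 concentrations, 96-well plates. At the GI50, growth is halved. TGI: total growth inhibition.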
Legend:
Test in all cases: DTP human tumour cell line panel, 48 h
HCT-116 colon = test system: HCT-116 colon
SF-539 CNS = test system: SF-539 CNS
RPMI-8226 leukemia = test system: RPMI-8226 leukemia
RXF 393 renal = test system: RXF 393 renal
NCI-H460 lung = test system: NCI-H460 lung
OVCAR-3 ovarian = test system: OVCAR-3 ovarian
CAKI-1 renal = test system: CAKI-1 renal
COLO 205 colon = test system: COLO 205 colon
DU-145 prostate = test system: DU-145 prostate
CCRF-CEM leukemia = test system: CCRF-CEM leukemia
PC-3 prostate = test system: PC-3 prostate
SF-268 CNS = test system: SF-268 CNS
SW-620 colon = test system: SW-620 colon
SK-OV-3 ovarian = test system: SK-OV-3 ovarian
BT-549 breast = test system: BT-549 breast
SNB-19 CNS = test system: SNB-19 CNS
SK-MEL-28 melanoma = test system: SK-MEL-28 melanoma
UACC-62 melanoma = test system: UACC-62 melanoma
IGROV1 ovarian = test system: IGROV1 ovarian
HOP-62 NSCLC = test system: HOP-62 NSCLC
MCF7 breast = test system: MCF7 breast
HOP-92 NSCLC = test system: HOP-92 NSCLC
HCT-15 colon = test system: HCT-15 colon
HCC-2998 colon = test system: HCC-2998 colon
EKVX NSCLC = test system: EKVX NSCLC
A549 NSCLC = test system: A549 NSCLC
U251 CNS = test system: U251 CNS
M14 melanoma = test system: M14 melanoma

Work on `O=C1Nc2ccccc2C1(c1c[nH]c2ccccc12)c1c[nH]c2ccccc12` yielded a GI50 (HCT-116 colon) of 2.48 µM, a TGI (HCT-116 colon) of 6.29 µM and a GI50 (SF-539 CNS) of 2.07 µM. The TGI (SF-539 CNS) was 4.31 µM, the GI50 (RPMI-8226 leukemia) was 4.25 µM and the TGI (RPMI-8226 leukemia) was 38.5 µM. For the same compound, the GI50 (RXF 393 renal) was 1.94 µM, the TGI (RXF 393 renal) was 3.76 µM and the GI50 (NCI-H460 lung) was 2.84 µM. It also gave a TGI (NCI-H460 lung) of 8.21 µM, a GI50 (OVCAR-3 ovarian) of 2.14 µM and a TGI (OVCAR-3 ovarian) of 4.84 µM. For the same compound, the GI50 (CAKI-1 renal) was 1.85 µM, the TGI (CAKI-1 renal) was 4.37 µM and the GI50 (COLO 205 colon) was 1.93 µM. For the same compound, the TGI (COLO 205 colon) was 3.86 µM, the GI50 (DU-145 prostate) was 2.09 µM and the TGI (DU-145 prostate) was 4.2 µM. The GI50 (CCRF-CEM leukemia) was 4.43 µM, the TGI (CCRF-CEM leukemia) was 45.8 µM and the GI50 (PC-3 prostate) was 2.05 µM. The TGI (PC-3 prostate) was 5.75 µM, the GI50 (SF-268 CNS) was 2.8 µM and the TGI (SF-268 CNS) was 13.9 µM. It also gave a GI50 (SW-620 colon) of 3.22 µM, a TGI (SW-620 colon) of 13.1 µM and a GI50 (SK-OV-3 ovarian) of 2.72 µM. It also gave a TGI (SK-OV-3 ovarian) of 7.74 µM, a GI50 (BT-549 breast) of 2.06 µM and a TGI (BT-549 breast) of 4.68 µM. The GI50 (SNB-19 CNS) was 2.73 µM, the TGI (SNB-19 CNS) was 8.35 µM and the GI50 (SK-MEL-28 melanoma) was 5.7 µM. It also gave a TGI (SK-MEL-28 melanoma) of 20 µM, a GI50 (UACC-62 melanoma) of 1.96 µM and a TGI (UACC-62 melanoma) of 5.09 µM. It also gave a GI50 (IGROV1 ovarian) of 2.04 µM, a TGI (IGROV1 ovarian) of 5.09 µM and a GI50 (HOP-62 NSCLC) of 1.93 µM. The TGI (HOP-62 NSCLC) was 4.95 µM, the GI50 (MCF7 breast) was 2.06 µM and the TGI (MCF7 breast) was 4.74 µM. It also gave a GI50 (HOP-92 NSCLC) of 1.87 µM, a TGI (HOP-92 NSCLC) of 4.95 µM and a GI50 (HCT-15 colon) of 2.57 µM. It also gave a TGI (HCT-15 colon) of 7.69 µM, a GI50 (HCC-2998 colon) of 1.82 µM and a TGI (HCC-2998 colon) of 3.75 µM. The GI50 (EKVX NSCLC) was 1.7 µM, the TGI (EKVX NSCLC) was 3.84 µM and the GI50 (A549 NSCLC) was 2.18 µM. It also gave a TGI (A549 NSCLC) of 5.31 µM, a GI50 (U251 CNS) of 2.69 µM and a TGI (U251 CNS) of 7.49 µM. For the same compound, the GI50 (M14 melanoma) was 2.39 µM and the TGI (M14 melanoma) was 7.17 µM.
